Results as given in ChEMBL document CHEMBL3877327, “Activation of anti-oxidant Nrf2 signaling by substituted trans stilbenes” (Bioorg Med Chem, 2017).

The compounds below were run against T1, Nuclear factor erythroid 2-related factor 2 (Homo sapiens) (UniProt Q16236) (assay: Activation of Nrf2 (unknown origin) expressed in human HepG2 cells at 15 uM after 5 hrs by ARE-driven luciferase reporter gene assay relative to control).
T1 sequence (whole entry): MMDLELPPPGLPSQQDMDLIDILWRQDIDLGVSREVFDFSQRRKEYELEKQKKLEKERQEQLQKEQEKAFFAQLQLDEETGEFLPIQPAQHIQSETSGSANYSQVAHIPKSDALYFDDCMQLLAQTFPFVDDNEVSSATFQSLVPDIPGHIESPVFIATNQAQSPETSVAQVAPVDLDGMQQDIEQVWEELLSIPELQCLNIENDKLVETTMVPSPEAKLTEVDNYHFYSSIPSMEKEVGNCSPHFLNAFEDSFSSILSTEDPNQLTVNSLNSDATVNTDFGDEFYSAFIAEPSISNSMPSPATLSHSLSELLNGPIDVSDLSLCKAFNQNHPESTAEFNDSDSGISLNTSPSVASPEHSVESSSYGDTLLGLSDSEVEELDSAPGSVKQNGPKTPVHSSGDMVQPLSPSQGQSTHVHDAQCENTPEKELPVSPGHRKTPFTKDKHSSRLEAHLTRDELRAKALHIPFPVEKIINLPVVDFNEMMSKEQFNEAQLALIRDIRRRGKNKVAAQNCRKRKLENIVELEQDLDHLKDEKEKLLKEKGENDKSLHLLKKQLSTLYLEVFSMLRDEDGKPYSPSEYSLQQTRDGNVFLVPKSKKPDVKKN
Format: cell-based

First: Fc1ccc(/C=C/c2ccc(F)c(F)c2)cc1
Second: COc1ccc(/C=C/c2ccc(F)c(F)c2)cc1
The fold change (FC) of the first is higher: 7 for the first, 4.6 for the second.

First: Fc1ccc(/C=C/c2ccccc2F)cc1F
Second: Fc1cccc(/C=C/c2ccccc2F)c1
The fold change (FC) of the first is higher: 11.5 for the first, 8.5 for the second.

Going from `COc1cccc(/C=C/c2cc(OC)ccc2OC)c1` to `COc1ccc(/C=C/c2cccc(O)c2)cc1`, the fold change (FC) rises from 15.7 to 28.1.

These compounds were tested against T1, Nuclear factor erythroid 2-related factor 2 (Homo sapiens) (assay: Activation of Nrf2 (unknown origin) expressed in human HepG2 cells after 5 hrs by ARE-driven luciferase reporter gene assay relative to control).
Format: cell-based

Going from `Fc1cccc(F)c1/C=C/c1ccccc1` to `Fc1ccccc1/C=C/c1c(F)cccc1F`, the fold change (FC) rises from 11.4 to 21.2.

First: COc1cccc(/C=C/c2ccc(F)cc2)c1OC
Second: COc1cccc(/C=C/c2ccc(C)cc2)c1OC
The fold change (FC) of the first is higher: 16.9 for the first, 16.1 for the second.

First: Cc1ccc(/C=C/c2ccc(F)cc2)cc1
Second: COc1ccc(/C=C/c2ccc(F)cc2)cc1
The fold change (FC) of the first is lower: 1.1 for the first, 1.7 for the second.

First: Fc1ccccc1/C=C/c1ccccc1F
Second: COc1ccccc1/C=C/c1ccccc1F
The fold change (FC) of the first is lower: 13.9 for the first, 18.4 for the second.

First: COc1cccc(/C=C/c2cccc(F)c2)c1OC
Second: COc1cccc(/C=C/c2ccccc2)c1OC
The fold change (FC) of the first is lower: 19.4 for the first, 25.4 for the second.

Compared with `Fc1cccc(/C=C/c2cc(F)ccc2F)c1`, `Fc1cccc(/C=C/c2ccc(F)cc2F)c1` is lower in fold change (FC): 10.7 for the first, 8.2 for the second.

First: COc1cccc(/C=C/c2ccccc2OC)c1
Second: COc1cccc(/C=C/c2ccccc2F)c1
The fold change (FC) of the first is higher: 29.2 for the first, 14.4 for the second.

Compared with `COc1ccc(OC)c(/C=C/c2ccc(OC)cc2OC)c1`, `COc1ccc(/C=C/c2ccc(OC)cc2OC)cc1` is higher in fold change (FC): 12.9 for the first, 15.6 for the second.

Compared with `COc1cccc(/C=C/c2ccc(C(C)C)cc2)c1OC`, `COc1cccc(/C=C/c2ccc(C(F)(F)F)cc2)c1OC` is higher in fold change (FC): 33.9 for the first, 65.5 for the second.

Going from `Fc1cccc(/C=C/c2ccccc2)c1` to `Fc1ccc(/C=C/c2ccccc2)cc1`, the fold change (FC) falls from 4.9 to 4.8.

First: Cc1ccc(/C=C/c2ccc(F)cc2F)cc1
Second: Fc1ccc(/C=C/c2ccc(F)cc2F)cc1
The fold change (FC) of the first is lower: 13.5 for the first, 16.8 for the second.

Compared with `Fc1ccc(/C=C/c2ccccc2F)c(F)c1`, `Fc1ccc(F)c(/C=C/c2ccccc2F)c1` is higher in fold change (FC): 5 for the first, 22.3 for the second.

Compared with `COc1ccc(/C=C/c2ccc(O)c(OC)c2)cc1`, `COc1ccc(/C=C/c2ccc(F)cc2)cc1OC` is lower in fold change (FC): 27.7 for the first, 1.6 for the second.

Compared with `Cc1ccc(/C=C/c2cccc(F)c2)cc1`, `Fc1ccc(/C=C/c2cccc(F)c2)cc1` is lower in fold change (FC): 4.7 for the first, 4.5 for the second.

First: Fc1cccc(/C=C/c2cccc(F)c2)c1
Second: COc1cccc(/C=C/c2cccc(F)c2)c1
The fold change (FC) of the first is lower: 7 for the first, 15.1 for the second.

Going from `Oc1ccc(/C=C/c2cc(O)cc(O)c2)cc1` to `Oc1ccc(/C=C/c2ccccc2F)cc1`, the fold change (FC) rises from 3.2 to 13.4.

First: Fc1ccccc1/C=C/c1ccc(Cl)cc1
Second: Cc1ccc(/C=C/c2ccccc2F)cc1
The fold change (FC) of the first is lower: 5.3 for the first, 10.1 for the second.

Compared with `COc1ccc(/C=C/c2ccccc2Cl)cc1`, `COc1ccc(/C=C/c2ccccc2F)cc1` is lower in fold change (FC): 17.8 for the first, 14.9 for the second.

Compared with `Cc1ccc(/C=C/c2ccc(F)c(F)c2)cc1`, `Fc1cccc(/C=C/c2ccc(F)c(F)c2)c1` is higher in fold change (FC): 10.2 for the first, 12.2 for the second.

Going from `Fc1ccc(/C=C/c2cc(F)ccc2F)cc1` to `COc1ccc(/C=C/c2cc(F)ccc2F)cc1`, the fold change (FC) rises from 11.2 to 17.

First: Fc1ccccc1/C=C/c1ccccc1
Second: COc1ccccc1/C=C/c1ccccc1
The fold change (FC) of the first is lower: 10.7 for the first, 23.1 for the second.

Going from `O=[N+]([O-])c1cccc(/C=C/c2ccccc2)c1` to `Cc1ccc(/C=C/c2cccc([N+](=O)[O-])c2)cc1`, the fold change (FC) falls from 18.6 to 11.9.

Compared with `COc1cccc(/C=C/c2ccc(F)cc2)c1`, `COc1ccc(/C=C/c2cccc(F)c2)cc1` is lower in fold change (FC): 4.4 for the first, 3.6 for the second.

First: C[S+]([O-])CCCCN=C=S (stereo not drawn)
Second: Cc1ccc(/C=C/c2cccc(C(F)(F)F)c2)cc1
The fold change (FC) of the first is lower: 12.4 for the first, 19.2 for the second.

Going from `COc1ccc(/C=C/c2cccc(F)c2)cc1OC` to `COc1ccc(OC)c(/C=C/c2ccc(F)cc2)c1`, the fold change (FC) rises from 5.9 to 10.7.

Compared with `Fc1ccc(/C=C/c2ccccc2F)cc1`, `COc1ccc(/C=C/c2cccc([N+](=O)[O-])c2)cc1` is higher in fold change (FC): 12.7 for the first, 69 for the second.
